{"source": "patent US9744186B2", "about": "(priority 2012, dated 2017)", "tested_on": "HCV luciferase replicon", "test": "Isobologram analysis of synergism with other anti-viral compounds", "type": "cell-based, hepatitis C virus (HCV)", "experimental": "Isobologram analysis was carried to assess the potential synergistic interaction of representative disclosed compounds with representative antiviral compounds. The isobolgram analysis was conducted as previously described by Chou and Talalay (see Chou T. C. and Talalay P. “Analysis of combined drug effects: a new look at a very old problem.” Trends Pharmacol Sci 1983; 4:450-4; and Chou T. C. and Talalay P. “Quantitative analysis of dose-effect relationships: the combined effects of multiple drugs or enzyme inhibitors.” Adv Enzyme Regul 1984; 22:27-55). The definitions of synergism are those described by Chou (see Chou, T. C. (2006) Theoretical basis, experimental design, and computerized simulation of synergism and antagonism in drug combination studies. Pharmacol Rev. 58(3):621-81).\nData for the isobologram analysis are shown in FIGS. 12-15, and shown in each figure are the test compound concentrations and corresponding combination index.", "data": [{"smiles": "COc1cc(C(=O)Nc2ccn([C@@H]3O[C@H](CO)[C@@H](O)C3(F)F)c(=O)n2)cc(OC)c1OC", "note": "[GTB, N^4-(3,4,5-Trimethoxybenzoyl)gemcitabine]", "values": [{"measurement": "Interaction Type with BMS-790052", "setting": "Compound 2 = BMS-790052", "result": "moderate synergism"}, {"measurement": "Interaction Type with PSI-7977", "setting": "Compound 2 = PSI-7977", "result": "moderate antagonism"}]}]}
